Values of other authors, collected in patent US8637078B2, “Bilayer tablet comprising telmisartan and diuretic” (Boehringer Ingelheim International GmbH, priority 2005, dated 2014).

Tests used:
[1] = both polymorphic forms A and B; physiological pH range of the gastrointestinal tract, pH 1 to 7
[2] = composition with 3 to 50 wt. % telmisartan in dissolving matrix (basic agent, surfactant or emulsifier, water-soluble diluent); known from WO 2004/028505

## CCCc1nc2c(C)cc(-c3nc4ccccc4n3C)cc2n1Cc1ccc(-c2ccccc2C(=O)O)cc1 [telmisartan, 4′-[2-n-propyl-4-methyl-6-(1-methylbenzimidazol-2-yl)-benzimidazol-1-ylmethyl]-biphenyl-2-carboxylic acid]
[1]
  solubility in aqueous systems: very poor solubility
[2]
  solubility raised by a factor: several hundred
